From ChEMBL document CHEMBL3885881, “DrugMatrix”

Organism: Rattus norvegicus
Experiment: DrugMatrix - Regimen: Daily Repeat
Assay type: toxicity, organism-based, Sprague-Dawley
Set-up: regimen Daily Repeat, gender Male, age 6-8 weeks
Conditions: in vivo, po, route oral GAVAGE, vehicle 100 % WATER; for ABSOLUTE BASOPHIL / ABSOLUTE EOSINOPHIL / ABSOLUTE LYMPHOCYTE / ABSOLUTE MONOCYTE / ABSOLUTE SEGMENTED NEUTROPHIL / BASOPHIL / EOSINOPHIL / ERYTHROCYTE COUNT / HEMATOCRIT / HEMOGLOBIN / LEUKOCYTE COUNT / LYMPHOCYTE / MEAN CORPUSCULAR HEMOGLOBIN / MEAN CORPUSCULAR HEMOGLOBIN CONCENTRATION / MEAN CORPUSCULAR VOLUME / MONOCYTE / NEUTROPHIL / NUCLEATED RED BLOOD CELLS / PLATELET COUNT: tissue Blood; for ALANINE AMINOTRANSFERASE / ALBUMIN / ALKALINE PHOSPHATASE / ASPARTATE AMINOTRANSFERASE / BLOOD UREA NITROGEN / CARBON DIOXIDE / CHLORIDE / CHOLESTEROL / CREATINE PHOSPHOKINASE / CREATININE / GLUCOSE / LACTATE DEHYDROGENASE / LIPASE / PHOSPHORUS / POTASSIUM / SODIUM / TOTAL BILIRUBIN / TOTAL PROTEIN / URIC ACID: tissue Plasma
[1] = 1 mg/kg, 120 h, dose level Low, time 5 day
[2] = 175 mg/kg, 72 h, dose level High, time 3 day
[3] = 175 mg/kg, 120 h, dose level High, time 5 day

CN1C2CCCC1CC(NC(=O)c1nn(C)c3ccccc13)C2 (centres undefined) [GRANISETRON]
ABSOLUTE BASOPHIL [1]: 0 CELLS/uL
ABSOLUTE EOSINOPHIL [1]: 0 CELLS/uL
ABSOLUTE LYMPHOCYTE [1]: 8153 CELLS/uL
ABSOLUTE MONOCYTE [1]: 97.67 CELLS/uL
ABSOLUTE SEGMENTED NEUTROPHIL [1]: 549.33 CELLS/uL
BASOPHIL [1]: 0%
EOSINOPHIL [1]: 0%
ERYTHROCYTE COUNT [1]: 5.09 x10E6/uL
HEMATOCRIT [1]: 31.63%
HEMOGLOBIN [1]: 12.5 G/DL
LEUKOCYTE COUNT [1]: 8.8 x10E3/uL
LYMPHOCYTE [1]: 92.67%
MEAN CORPUSCULAR HEMOGLOBIN [1]: 24.53 pg
MEAN CORPUSCULAR HEMOGLOBIN CONCENTRATION [1]: 39.6 G/DL
MEAN CORPUSCULAR VOLUME [1]: 62.03 fL
MONOCYTE [1]: 1%
NEUTROPHIL [1]: 6.33%
NUCLEATED RED BLOOD CELLS [1]: 0.67 /100WBC
PLATELET COUNT [1]: 832 x10E3/uL
ALANINE AMINOTRANSFERASE [1]: 51 u/L
ALBUMIN [1]: 4.2 G/DL
ALKALINE PHOSPHATASE [1]: 374 u/L
ASPARTATE AMINOTRANSFERASE [1]: 84.33 u/L
BLOOD UREA NITROGEN [1]: 16 mg/dL
CARBON DIOXIDE [1]: 31 mmol/L
CHLORIDE [1]: 101.67 MEQ/L
CHOLESTEROL [1]: 74.33 mg/dL
CREATINE PHOSPHOKINASE [1]: 215.67 u/L
CREATININE [1]: 0.16 mg/dL
GLUCOSE [1]: 149.33 mg/dL
LACTATE DEHYDROGENASE [1]: 154 u/L
LIPASE [1]: 9 u/L
PHOSPHORUS [1]: 10.23 mg/dL
POTASSIUM [1]: 5.82 MEQ/L
SODIUM [1]: 145 MEQ/L
TOTAL BILIRUBIN [1]: 0.23 mg/dL
TOTAL PROTEIN [1]: 6.23 G/DL
URIC ACID [1]: 0.7 mg/dL
ABSOLUTE BASOPHIL [2]: 0 CELLS/uL
ABSOLUTE EOSINOPHIL [2]: 0 CELLS/uL
ABSOLUTE LYMPHOCYTE [2]: 10622.67 CELLS/uL
ABSOLUTE MONOCYTE [2]: 19.67 CELLS/uL
ABSOLUTE SEGMENTED NEUTROPHIL [2]: 557.67 CELLS/uL
BASOPHIL [2]: 0%
EOSINOPHIL [2]: 0%
ERYTHROCYTE COUNT [2]: 5.65 x10E6/uL
HEMATOCRIT [2]: 35.33%
HEMOGLOBIN [2]: 13.77 G/DL
LEUKOCYTE COUNT [2]: 11.2 x10E3/uL
LYMPHOCYTE [2]: 93.67%
MEAN CORPUSCULAR HEMOGLOBIN [2]: 24.43 pg
MEAN CORPUSCULAR HEMOGLOBIN CONCENTRATION [2]: 38.93 G/DL
MEAN CORPUSCULAR VOLUME [2]: 62.63 fL
MONOCYTE [2]: 0.33%
NEUTROPHIL [2]: 6%
NUCLEATED RED BLOOD CELLS [2]: 0 /100WBC
PLATELET COUNT [2]: 1057.67 x10E3/uL
ALANINE AMINOTRANSFERASE [2]: 72.67 u/L
ALBUMIN [2]: 4 G/DL
ALKALINE PHOSPHATASE [2]: 502.33 u/L
ASPARTATE AMINOTRANSFERASE [2]: 95 u/L
BLOOD UREA NITROGEN [2]: 13 mg/dL
CARBON DIOXIDE [2]: 33 mmol/L
CHLORIDE [2]: 100 MEQ/L
CHOLESTEROL [2]: 75.67 mg/dL
CREATINE PHOSPHOKINASE [2]: 557.67 u/L
CREATININE [2]: 0.12 mg/dL
GLUCOSE [2]: 149.33 mg/dL
LACTATE DEHYDROGENASE [2]: 186 u/L
LIPASE [2]: 10 u/L
PHOSPHORUS [2]: 11.47 mg/dL
POTASSIUM [2]: 5.72 MEQ/L
SODIUM [2]: 145.1 MEQ/L
TOTAL BILIRUBIN [2]: 0.17 mg/dL
TOTAL PROTEIN [2]: 5.83 G/DL
URIC ACID [2]: 0.5 mg/dL
ABSOLUTE BASOPHIL [3]: 0 CELLS/uL
ABSOLUTE EOSINOPHIL [3]: 0 CELLS/uL
ABSOLUTE LYMPHOCYTE [3]: 7981.33 CELLS/uL
ABSOLUTE MONOCYTE [3]: 176.67 CELLS/uL
ABSOLUTE SEGMENTED NEUTROPHIL [3]: 675.33 CELLS/uL
BASOPHIL [3]: 0%
EOSINOPHIL [3]: 0%
ERYTHROCYTE COUNT [3]: 5.68 x10E6/uL
HEMATOCRIT [3]: 35.93%
HEMOGLOBIN [3]: 13.87 G/DL
LEUKOCYTE COUNT [3]: 8.83 x10E3/uL
LYMPHOCYTE [3]: 90%
MEAN CORPUSCULAR HEMOGLOBIN [3]: 24.47 pg
MEAN CORPUSCULAR HEMOGLOBIN CONCENTRATION [3]: 38.67 G/DL
MEAN CORPUSCULAR VOLUME [3]: 63.37 fL
MONOCYTE [3]: 2%
NEUTROPHIL [3]: 8%
NUCLEATED RED BLOOD CELLS [3]: 0 /100WBC
PLATELET COUNT [3]: 1308.33 x10E3/uL
ALANINE AMINOTRANSFERASE [3]: 86.67 u/L
ALBUMIN [3]: 4.03 G/DL
ALKALINE PHOSPHATASE [3]: 415.33 u/L
ASPARTATE AMINOTRANSFERASE [3]: 102 u/L
BLOOD UREA NITROGEN [3]: 16.67 mg/dL
CARBON DIOXIDE [3]: 31.33 mmol/L
CHLORIDE [3]: 100.33 MEQ/L
CHOLESTEROL [3]: 67.33 mg/dL
CREATINE PHOSPHOKINASE [3]: 224.33 u/L
CREATININE [3]: 0.19 mg/dL
GLUCOSE [3]: 146.33 mg/dL
LACTATE DEHYDROGENASE [3]: 136.33 u/L
LIPASE [3]: 11.67 u/L
PHOSPHORUS [3]: 11.97 mg/dL
POTASSIUM [3]: 5.51 MEQ/L
SODIUM [3]: 146.57 MEQ/L
TOTAL BILIRUBIN [3]: 0.17 mg/dL
TOTAL PROTEIN [3]: 5.6 G/DL
URIC ACID [3]: 0.57 mg/dL
